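Five concentrations, 48 hours, 96-well plates. GI50 is the concentration that inhibits growth by half.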 Activity calls are given as the source filed them. Rule as the data show it: active = GI50 up to about 1.1 µM and inactive = higher.

This is an account of results in ChEMBL document CHEMBL1201862, “PubChem BioAssay data set” (2004).

What all share (experiment): inhibition of tumour cell growth, NCI panel, 48 h
Test [1] deals with OVCAR-3.
Test [2] concerns U-251.
The test system of test [3] is COLO 205.
Test [4] relates to OVCAR-8.
Test [5] deals with SK-MEL-28.
Test [6] has as its system HT-29.
Test [7] has as its system HCT-15.
Test [8] concerns EKVX.
Test [9] has as its system TK-10.
Test [10] relates to UACC-62.
Test [11] deals with SK-MEL-2.
Test [12] deals with HL-60.
The test system of test [13] is SF-539.
Test [14] has as its system SR.
Test [15] relates to NCI-H522.
In test [16] the test system is CAKI-1.
Test [17] deals with MDA-MB-231.
In test [18] the test system is MDA-MB-435.
Test [19] deals with DU-145.
The test system of test [20] is A498.

Turning to `COc1ccc(C(=O)NNC(=O)c2nsc3ccccc23)cc1`, the GI50 is 30.8 µM (inactive) in test [1]; 41.1 µM (inactive) in [2]; > 100 µM (inactive) in test [3]; 60.1 µM (inactive) in test [4]; > 100 µM (inactive) in test [5]; 61.7 µM (inactive) in test [6]. Besides, the GI50 in [7] is 41.7 µM; in test [8], 27.2 µM (inactive); in [9] it was > 100 µM (inactive); in [10] it was > 100 µM (inactive); in [11], > 100 µM (inactive); in test [12] it was 23.3 µM (inactive). Moreover, the GI50 in test [13] is > 100 µM (inactive).
Consider `CCOC(=O)C1CCn2c(nc3c2c(=O)n(C)c(=O)n3C)S1` (centres undefined), for which the GI50 was > 100 µM (inactive) in test [1]; > 100 µM (inactive) in [2]; > 100 µM (inactive) in test [4]; > 100 µM (inactive) in [6]; 77.1 µM (inactive) in [14]; above 100 µM in [7]. The GI50 in test [8], in test [15], in test [9], in test [10], in [11] and in test [12] was > 100 µM (inactive) throughout. In addition, the GI50 in test [13] and in [16] was > 100 µM (inactive) each time.
Consider `CCC(=O)NC(Nc1cccc(F)c1)(C(F)(F)F)C(F)(F)F`, for which the GI50 is > 100 µM (inactive) in test [1]; 90.6 µM (inactive) in [2]; > 100 µM (inactive) in [3]; > 100 µM (inactive) in test [4]; > 100 µM (inactive) in test [5]; > 100 µM (inactive) in test [6]. Moreover, the GI50 in test [14] is > 100 µM (inactive); in test [7], above 100 µM; in test [17], > 100 µM (inactive); in [8], 67.3 µM (inactive); in test [15], 29.6 µM (inactive); in [9], > 100 µM (inactive). Also, the GI50 is > 100 µM (inactive) in [10]; > 100 µM (inactive) in test [18]; > 100 µM (inactive) in test [11]; 86.9 µM (inactive) in test [12]; > 100 µM (inactive) in [13]; > 100 µM (inactive) in test [19]. For the same molecule, the GI50 in [16] was 10.7 µM (inactive).
Turning to `Cc1n[nH]c(CC#N)n1`, the GI50 in test [1], in test [2], in [3], in [4], in test [6] and in test [14] was > 100 µM (inactive) each time. The GI50 in [7] is above 100 µM; in test [17], > 100 µM (inactive); in [8], > 100 µM (inactive); in [15], > 100 µM (inactive); in [9] it was > 100 µM (inactive); in [10] it was > 100 µM (inactive). Also, the GI50 in test [18], in test [11], in test [13] and in test [19] was > 100 µM (inactive) each time.
Consider `OC1CCOc2ccccc21` (centres undefined), for which the GI50 in test [1], in [2], in test [3], in test [4], in test [5] and in test [6] was > 100 µM (inactive) in each case. Also, the GI50 was > 100 µM (inactive) in [14]; above 100 µM in test [7]; > 100 µM (inactive) in test [8]; > 100 µM (inactive) in test [15]; > 100 µM (inactive) in [9]; > 100 µM (inactive) in test [10]. Besides, the GI50 in [11], in test [12], in [13] and in test [16] was > 100 µM (inactive) in each case.
`O=C1Nc2ccc(Cl)cc2/C1=C\c1c(Cl)nc2sccn12`: the GI50 was 3.32 µM (inactive) in test [1]; 2.93 µM (inactive) in test [2]; 50.8 µM (inactive) in [4]; > 100 µM (inactive) in test [5]; 0.338 µM (active) in test [14]; 2.67 µM in test [7]. Moreover, the GI50 in [17] was 2.56 µM (inactive); in [15], 5.62 µM (inactive); in test [9] it was 8.47 µM (inactive); in test [18], 0.787 µM (active); in test [11], 0.314 µM (active); in test [12], 4.07 µM (inactive). Also, the GI50 in test [20] is 0.0632 µM (active); in test [19], 73.5 µM (inactive); in test [16], 18.7 µM (inactive).
Consider `COP(=O)(OC)C(N)Cc1c[nH]c2ccccc12` (centres undefined), for which the GI50 in test [1], in test [2], in test [3], in test [4], in [5] and in test [6] was > 100 µM (inactive) in each case. The GI50 in test [7] was above 100 µM; in [17] it was > 100 µM (inactive); in [15] it was > 100 µM (inactive); in test [9], > 100 µM (inactive); in test [18], > 100 µM (inactive); in test [11], > 100 µM (inactive). Moreover, the GI50 in [20], in test [19] and in test [16] was > 100 µM (inactive) throughout.
As for `O=C1CCC(NC(=O)Cc2ccc(O)cc2)C(=O)N1` (centres undefined), the GI50 in [1], in [2], in test [3], in test [4], in test [5] and in test [6] was > 2500 µM (inactive) in each case. Further, the GI50 in test [7] is above 2500 µM; in test [8], > 2500 µM (inactive); in test [15], > 2500 µM (inactive); in test [9], > 2500 µM (inactive); in test [10] it was > 2500 µM (inactive); in [20], > 2500 µM (inactive). Besides, in test [16], the GI50 is > 2500 µM (inactive).
As to `Cc1ccc(C2CC(c3cccc([N+](=O)[O-])c3)=Nc3ccccc3S2)cc1` (centres undefined), the GI50 is 28.5 µM (inactive) in test [1]; 27.5 µM (inactive) in [2]; 98.2 µM (inactive) in test [3]; 24.2 µM (inactive) in test [4]; 62.4 µM (inactive) in test [5]; 32.4 µM (inactive) in test [6]. Besides, the GI50 in test [14] was 25.8 µM (inactive); in test [7], 25.5 µM; in test [8], > 88.1 µM (inactive); in [15], 20.5 µM (inactive); in test [9], 83.2 µM (inactive); in [10] it was 25.4 µM (inactive). Besides, the GI50 in [11] is 38.3 µM (inactive); in [12], 20.1 µM (inactive); in [13], 51.5 µM (inactive); in test [20] it was > 54.3 µM (inactive); in test [16] it was 24.3 µM (inactive).
On to `CC1CC(C[N+](=O)[O-])CC2(C1)OCCO2` (centres undefined), for which the GI50 in test [1], in [2], in test [3], in [4], in test [5] and in test [14] was > 100 µM (inactive) throughout. The GI50 in test [7] was above 100 µM; in test [15] it was > 100 µM (inactive); in test [9] it was > 100 µM (inactive); in test [10] it was > 100 µM (inactive); in test [11], > 100 µM (inactive); in test [12], > 100 µM (inactive). Besides, the GI50 in test [13], in test [20] and in test [16] was > 100 µM (inactive) throughout.
On to `O=C(OCCOC(=O)c1ccc2c(c1)C1(SCCS1)c1ccccc1-2)c1ccc2c(c1)C1(SCCS1)c1ccccc1-2`, for which the GI50 in test [1], in [2], in test [3], in test [4], in [5] and in test [6] was > 100 µM (inactive) throughout. The GI50 in [14] is > 100 µM (inactive); in test [7], above 100 µM; in test [8], > 100 µM (inactive); in test [15] it was > 100 µM (inactive); in [10] it was > 100 µM (inactive); in test [11], > 100 µM (inactive). The GI50 in test [12], in test [13], in test [20] and in [16] was > 100 µM (inactive) in each case.
Take `O=C1NC(O)CCN1C1OC(CO)C(O)C1O` (centres undefined): the GI50 is > 250 µM (inactive) in [1]; > 79.8 µM (inactive) in test [2]; > 250 µM (inactive) in test [3]; > 250 µM (inactive) in test [4]; > 250 µM (inactive) in [5]; > 250 µM (inactive) in test [6]. Moreover, the GI50 in test [7] was above 250 µM; in test [8] it was > 250 µM (inactive); in test [15], > 216 µM (inactive); in test [10], > 250 µM (inactive); in test [11] it was > 158 µM (inactive); in test [12], > 250 µM (inactive). The GI50 in [13] is > 250 µM (inactive); in test [20], > 211 µM (inactive); in test [16], > 250 µM (inactive).
In the case of `CC/C=C\C/C=C\C/C=C\CCCCCCCC(=O)OC` [METHYL LINOLENATE], the GI50 in test [1] is > 100 µM (inactive); in test [2] it was > 100 µM (inactive); in test [3] it was 61.1 µM (inactive); in test [4], > 100 µM (inactive); in [5], > 100 µM (inactive); in [6], > 100 µM (inactive). The GI50 in test [7] is above 100 µM; in [8], > 100 µM (inactive); in test [15], > 100 µM (inactive); in test [10], > 100 µM (inactive); in [11], > 100 µM (inactive); in test [12] it was 22.8 µM (inactive). Further, the GI50 in test [13], in [20] and in test [16] was > 100 µM (inactive) in each case.
